Source: patent US7834024B2, “Compositions and methods for inhibition of the JAK pathway” (Rigel Pharmaceuticals, Inc., priority 2007, dated 2010)

Tested on: Ramos B-Cell Line Stimulated with IL-4 (JAK-1 and JAK-3 / Stat-6, CD23)
Experiment: Assay for Ramos B-Cell Line Stimulated with IL-4 (CD23 upregulation, FACS)
Assay type: cell-based
Details: Homo sapiens, Ramos, human Ramos B cells, compound 1 hour, IL-4 50 units/mL for 20-24 hours, anti-CD23-PE FACS; read-out: Example 2 (IC50)
Outline: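 Human Ramos B cells (5×10^4 per point, RPMI with 5% serum) pre-incubated 1 hour at 37° C with compound or DMSO, then stimulated with IL-4 at 50 units/mL final for 20-24 hours. CD23 upregulation measured by flow cytometry.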

| SMILES | IC50 |
| --- | --- |
| Cc1noc(COc2ccc(Nc3nc(Nc4cccc(C#N)c4)ncc3F)cc2)n1 [Compound I-111, N2-(3-Cyanophenyl)-5-fluoro-N4-[4-((3-methyl-1,2,4-oxadiazol-5-yl)methoxy)phenyl]-2,4-pyrimidinediamine] | 1050 nM |
| Cc1noc(CCCc2ccc(Nc3nc(Nc4cccc(C#N)c4)ncc3F)cc2)n1 [Compound I-114, N2-(3-Cyanophenyl)-5-fluoro-N4-[4-(3-(3-methyl-1,2,4-oxadiazol-5-yl)propyl)phenyl]-2,4-pyrimidinediamine] | 1750 nM |
| NC(=O)COc1ccc(Nc2nc(Nc3cccc(C(N)=O)c3)ncc2F)cc1 [Compound I-23, N4-(4-Aminocarbonylmethoxyphenyl)-N2-(3-aminocarbonylphenyl)-5-fluoro-2,4-pyrimidinediamine] | 3070 nM |
| NC(=O)COc1cccc(Nc2nc(Nc3cccc(C(N)=O)c3)ncc2F)c1 [Compound I-33, N4-(3-Aminocarbonylmethoxyphenyl)-N2-(3-aminocarbonylphenyl)-5-fluoro-2,4-pyrimidinediamine] | 3050 nM |
| COc1ccc(Nc2nc(Nc3cccc(C#N)c3)ncc2F)cc1Cl [Compound I-18, N4-(3-Chloro-4-methoxyphenyl)-N2-(3-cyanophenyl)-5-fluoro-2,4-pyrimidinediamine] | 266 nM |
| Cc1noc(CCc2ccc(Nc3nc(Nc4ccc(CC#N)cc4)ncc3F)cc2)n1 [Compound I-120, N2-(4-Cyanomethylphenyl)-5-fluoro-N4-[4-(2-(3-methyl-1,2,4-oxadiazol-5-yl)ethyl)phenyl]-2,4-pyrimidinediamine] | 1950 nM |
| Cc1nc(COc2ccc(Nc3nc(Nc4cccc(C#N)c4)ncc3F)cc2)no1 [Compound I-59, N2-(3-Cyanophenyl)-5-fluoro-N4-[4-((5-methyl-1,2,4-oxadiazol-3-yl)methoxy)phenyl]-2,4-pyrimidinediamine] | 596 nM |
| CCc1cc(Nc2ncc(F)c(Nc3ccc4c(c3)NC(=O)C(C)(C)O4)n2)cc(C#N)c1Cl [II-25, N2-(4-Chloro-3-cyano-5-ethylphenyl)-N4-(2,2-dimethyl-3-oxo-4H-benzo[1,4]oxazin-6-yl)-5-fluoro-2,4-pyrimidinediamine] | 1430 nM |
| Cc1noc(COc2ccc(Nc3nc(Nc4cccc(C#N)c4)ncc3F)c(C)c2)n1 [Compound I-116, N2-(3-Cyanophenyl)-5-fluoro-N4-[2-methyl-4-((3-methyl-1,2,4-oxadiazol-5-yl)methoxy)phenyl]-2,4-pyrimidinediamine] | 1440 nM |
| CCc1cc(Nc2ncc(F)c(Nc3ccc(OCC#N)c(Cl)c3)n2)cc(C#N)c1Cl [Compound I-108, N2-(4-Chloro-3-cyano-5-ethylphenyl)-N4-(3-chloro-4-cyanomethoxyphenyl)-5-fluoro-2,4-pyrimidinediamine] | 1800 nM |
| N#CCOc1ccc(Nc2nc(Nc3cccc(C(N)=O)c3)ncc2F)cc1F [Compound I-102, N2-(3-Aminocarbonylphenyl)-N4-(4-cyanomethoxy-3-fluorophenyl)-5-fluoro-2,4-pyrimidinediamine] | 259 nM |
| CC(C)(C#N)Oc1ccc(Nc2nc(Nc3ccc(CC#N)cc3)ncc2F)cc1 [Compound I-83, N4-[4-(1-Cyano-1-methylethoxy)phenyl]-N2-(4-cyanomethylphenyl)-5-fluoro-2,4-pyrimidinediamine] | 424 nM |
| CC(C#N)Oc1ccc(Nc2nc(Nc3cccc(C(N)=O)c3)ncc2F)cc1 (centres unmarked) [Compound I-82, N2-(3-Aminocarbonylphenyl)-N4-[4-(1-cyanoethoxy)phenyl]-5-fluoro-2,4-pyrimidinediamine] | 350 nM |
| CCc1cc(Nc2ncc(F)c(Nc3ccc(CC#N)cc3)n2)cc(C#N)c1Cl [Compound I-106, N2-(4-Chloro-3-cyano-5-ethylphenyl)-N4-(4-cyanomethylphenyl)-5-fluoro-2,4-pyrimidinediamine] | 7020 nM |
| C#CCOc1ccc(Nc2nc(Nc3ccc4c(c3)C(=O)NCC4)ncc2F)cc1 [Compound V-2, 5-Fluoro-N2-(1-oxo-1,2,3,4-tetrahydroisoquinolin-7-yl)-N4-[4-(2-propynyloxy)phenyl]-2,4-pyrimidinediamine] | 355 nM |
| Cc1cc(Nc2nc(Nc3cccc(C(N)=O)c3)ncc2F)cc(C)c1OCC#N [Compound I-91, N2-(3-Aminocarbonylphenyl)-N4-(4-cyanomethoxy-3,5-dimethylphenyl)-5-fluoro-2,4-pyrimidinediamine] | 333 nM |

The remaining lines, values ahead:

| IC50 | SMILES |
| --- | --- |
| 182 nM | CN1CCN(c2ccc(Nc3ncc(F)c(Nc4cccc(OCC(N)=O)c4)n3)cc2C(N)=O)CC1 [Compound I-50, N4-(3-Aminocarbonylmethoxyphenyl)-N2-[3-aminocarbonyl-4-(4-methylpiperazin-1-yl)phenyl]-5-fluoro-2,4-pyrimidinediamine] |
| 156 nM | N#CCOc1ccc(Nc2nc(Nc3cccc(C(N)=O)c3)ncc2F)cc1Cl [Compound I-99, N2-(3-Aminocarbonylphenyl)-N4-(3-chloro-4-cyanomethoxyphenyl)-5-fluoro-2,4-pyrimidinediamine] |
| 155 nM | Cc1cc(Nc2nc(Nc3ccc(CC#N)cc3)ncc2F)cc(C)c1OC(C)C#N (centres unmarked) [Compound I-97, N4-[4-(1-Cyanoethoxy)-3,5-dimethylphenyl]-N2-(4-cyanomethylphenyl)-5-fluoro-2,4-pyrimidinediamine] |
| 127 nM | Cc1cc(Nc2nc(Nc3ccc(C(N)=O)cc3)ncc2F)ccc1OC(C)C#N (centres unmarked) [Compound I-92, N2-(4-Aminocarbonylphenyl)-N4-[4-(1-cyanoethoxy)-3-methylphenyl]-5-fluoro-2,4-pyrimidinediamine] |
| 80.5 nM | Cc1nc(COc2ccc(Nc3nc(Nc4ccc(N5CCN(C)CC5)c(C(N)=O)c4)ncc3F)cc2)no1 [Compound I-62, N2-[3-Aminocarbonyl-4-(4-methylpiperazin-1-yl)phenyl]-5-fluoro-N4-[4-((5-methyl-1,2,4-oxadiazol-3-yl)methoxy)phenyl]-2,4-pyrimidinediamine] |
| 79.7 nM | N#CCOc1ccc(Nc2nc(Nc3ccc(CC#N)cc3)ncc2F)cc1 [Compound I-64, N4-(4-Cyanomethoxyphenyl)-N2-(4-cyanomethylphenyl)-5-fluoro-2,4-pyrimidinediamine] |
| 74.6 nM | N#CCOc1ccc(Nc2nc(Nc3ccc(C#N)cc3)ncc2F)cc1 [Compound I-29, N2-(4-Cyanophenyl)-N4-(4-cyanomethoxyphenyl)-5-fluoro-2,4-pyrimidinediamine] |
| 57.5 nM | COc1ccc(Nc2nc(Nc3ccc(C(=O)Nc4ccnn4C)cc3)ncc2F)cc1Cl [Compound I-4, N4-(3-Chloro-4-methoxyphenyl)-5-fluoro-N2-[4-((1-methyl-1H-pyrazol-5-yl)aminocarbonyl)phenyl]-2,4-pyrimidinediamine] |
| 52.9 nM | CC(C#N)Oc1ccc(Nc2nc(Nc3ccc(C(N)=O)cc3)ncc2F)cc1 (centres unmarked) [Compound I-81, N2-(4-Aminocarbonylphenyl)-N4-[4-(1-cyanoethoxy)phenyl]-5-fluoro-2,4-pyrimidinediamine] |
| 44.4 nM | Cc1cc(Nc2nc(Nc3ccc(C(N)=O)cc3)ncc2F)ccc1OCC#N [Compound I-87, N2-(4-Aminocarbonylphenyl)-N4-(4-cyanomethoxy-3-methylphenyl)-5-fluoro-2,4-pyrimidinediamine] |
| 33.7 nM | N#CCOc1ccc(Nc2nc(Nc3ccc(C(N)=O)cc3)ncc2F)cc1F [Compound I-101, N2-(4-Aminocarbonylphenyl)-N4-(4-cyanomethoxy-3-fluorophenyl)-5-fluoro-2,4-pyrimidinediamine] |

Same assay, conditions: human Ramos B cells, compound 1 hour, IL-4 50 units/mL for 20-24 hours, anti-CD23-PE FACS; read-out: Example 2 (IC50)

| SMILES | IC50 |
| --- | --- |
| CN1CCN(C(=O)c2cccc(Nc3ncc(F)c(Nc4ccc(OCC#N)cc4)n3)c2)CC1 [Compound I-40] | 567 nM |
| CN1CCN(C(=O)c2ccc(Nc3ncc(F)c(Nc4cccc(OCC(N)=O)c4)n3)cc2)CC1 [Compound I-49, N4-(3-Aminocarbonylmethoxyphenyl)-5-fluoro-N2-[4-((4-methylpiperazin-1-yl)carbonyl)phenyl]-2,4-pyrimidinediamine] | 2290 nM |
| CNC(=O)COc1cccc(Nc2ncc(C)c(Nc3ccc4c(c3)NC(=O)CO4)n2)c1 [II-5, 5-Methyl-N2-[3-(N-methylaminocarbonylmethyleneoxy)phenyl]-N4-(3-oxo-2H,4H-benzo[1,4]oxazin-6-yl)-2,4-pyrimidinediamine] | 28.5 nM |
| CNC(=O)COc1cc(Nc2ncc(C)c(Nc3ccc4c(n3)NC(=O)C(C)(C)O4)n2)cc(OC)c1OC [II-35, N2-[3,4-Dimethoxy-5-(N-methylaminocarbonylmethoxy)phenyl]-N4-(2,2-dimethyl-3-oxo-4H-5-pyrido[1,4]oxazin-6-yl)-5-methyl-2,4-pyrimidinediamine] | 87.3 nM |
| CNC(=O)COc1cccc(Nc2ncc(C)c(Nc3cnc4c(c3)OC(F)(F)C(=O)N4)n2)c1 [II-36, N4-(2,2-Difluoro-3-oxo-4H-5-pyrido[1,4]oxazin-7-yl)-5-methyl-N2-[3-(N-methylaminocarbonylmethyleneoxy)phenyl]-2,4-pyrimidinediamine] | 3780 nM |
| CNC(=O)COc1cccc(Nc2ncc(F)c(Nc3ccc4c(c3)N(CC#N)C(=O)CO4)n2)c1 [II-11, N4-(4-Cyanomethyl-3-oxo-2H-benzo[1,4]oxazin-6-yl)-5-fluoro-N2-[3-(N-methylaminocarbonylmethyleneoxy)phenyl]-2,4-pyrimidinediamine] | 28 nM |
| CNC(=O)COc1cccc(Nc2ncc(F)c(Nc3cc(OC)c(OC)c(OCC#N)c3)n2)c1 [Compound I-109, N4-(3-Cyanomethoxy-4,5-dimethoxyphenyl)-5-fluoro-N2-[3-(N-methylaminocarbonylmethyleneoxy)phenyl]-2,4-pyrimidinediamine] | 660 nM |
| CCN(CC)CCNC(=O)c1ccc(Nc2ncc(F)c(Nc3cccc(OCc4nc(C)no4)c3)n2)cc1 [Compound I-125, N2-[4-(2-(N,N-Diethylamino)ethylaminocarbonyl)phenyl]-5-fluoro-N4-[3-(3-methyl-1,2,4-oxadiazol-5-yl)methyleneoxyphenyl]-2,4-pyrimidinediamine] | 103 nM |
